Measured values taken from patent publication US12507703B2, “Methods, devices and compositions for preserving human milk” (The Trustees of Princeton University, priority 2023, dated 2025).
Several values for one entry are separate records, joined by “and”; a condition that tells them apart may be missing. Equal values may be shown once. Where a SMILES comes first, the peptide text is derived from it.

system: lipase; assay: Lipase/lipolysis assay (EnzChek Lipase Substrate, quenched BODIPY-fatty acid conjugate) on stored human milk; as to Lipase (RFU): test concentration or dose not given here

Row | Compound | Lipase (RFU) | Hit in lipase inhibition screen (in words)
1 | O=C(O)C1=CO[C@@H](O[C@@H]2O[C@H](CO)[C@@H](O)[C@H](O)[C@H]2O)[C@H]2[C@@H]1C=C[C@]2(O)CO [Monotropein] | 976.474 RFU | –
2 | NC(=O)c1ccc[n+]([C@@H]2O[C@H](COP(=O)([O-])OP(=O)(O)OC[C@H]3O[C@@H](n4cnc5c(N)ncnc54)[C@H](OP(=O)([O-])[O-])[C@@H]3O)[C@@H](O)[C@H]2O)c1.[Na+].[Na+] [NADP (disodium salt)] | 762.8961 RFU | –
3 | Triolein | 728.6705 RFU | –
4 | C=C(C)[C@H]1Cc2c(ccc3c2O[C@@H]2COc4cc(OC)c(OC)cc4[C@@H]2C3=O)O1 [Rotenone] | 542.204 RFU | –
5 | COc1c(O)cc2oc(-c3ccc(O)cc3)cc(=O)c2c1O [Hispidulin] | 914.8964 RFU | –
6 | CC(C)[C@@H](C)/C=C/[C@@H](C)[C@H]1CC[C@H]2[C@@H]3CC=C4C[C@@H](O)CC[C@]4(C)[C@H]3CC[C@]12C [Brassicasterol] | 931.4963 RFU | –
7 | C1CNCCN1.O=C(O)CC(O)(CC(=O)O)C(=O)O [Piperazine (citrate)] | 986.285 RFU | –
8 | C[C@H]1CC[C@@H](C(C)(C)O)CC2=C1CC[C@@H]2C [Guaiol] | 919.8918 RFU | –
9 | C/C=C/C=C/C=C\CC/C=C/C(=O)NCC(C)(C)O [Hydroxy-α-sanshool] | 984.0163 RFU | –
10 | O=C1C[C@@H](C(=O)O)NC(=O)N1 [L-Dihydroorotic acid] | 1002.656 RFU | –
11 | NCC(=O)N[C@@H](CC(=O)O)C(=O)O [Glycyl-L-Aspartic] (H-Gly-Asp-OH) | 903.5873 RFU | –
12 | O=C(O)c1cc(O)c2c(c1)C(=O)c1cccc(O[C@@H]3O[C@H](CO)[C@@H](O)[C@H](O)[C@H]3O)c1C2=O [Rhein 8-Glucoside] | 942.9082 RFU | –
13 | O.O=C(O)c1cc(O)c(O)c(O)c1 [Gallic acid (hydrate)] | 709.0148 RFU | –
14 | C[N+](C)(C)CCOP(=O)(O)O [Phosphoryl Choline] | 931.0385 RFU | –
15 | N[C@@H](CCC(=O)N[C@@H](Cc1ccccc1)C(=O)O)C(=O)O [γ-Glu-Phe] | 1077.051 RFU | –
16 | C[n+]1cn([C@@H]2O[C@H](CO)[C@@H](O)[C@H]2O)c2nc(N)[nH]c(=O)c21 [Compound 7-Methylguanosine, 7-Methylguanosine] | 974.6149 RFU | –
17 | OC[C@H]1O[C@H](OCC2O[C@@H](O)[C@H](O)[C@@H](O)[C@@H]2O)[C@H](O)[C@@H](O)[C@H]1O (stereo partly drawn) [D-Melibiose] | 850.0787 RFU and 747.8737 RFU | –
18 | C[N+](C)(C)CCOP(=O)([O-])OP(=O)([O-])OC[C@H]1O[C@@H](n2ccc(N)nc2=O)[C@H](O)[C@@H]1O.[Na+] [Citicoline (sodium)] | 965.9573 RFU | –
19 | Heparan Sulfate | 1097.057 RFU | –
20 | NC(N)=O [Urea] | 934.3458 RFU and 864.3039 RFU | –
21 | OC[C@H]1O[C@@H](Oc2cc3c(O)cc(O)cc3[o+]c2-c2ccc(O)c(O)c2)[C@H](O)[C@@H](O)[C@@H]1O.[Cl-] [Kuromanin (chloride)] | 1192.7 RFU | –

Row | Compound | Lipase (RFU) | Hit in lipase inhibition screen (in words)
22 | C[C@@]12CCc3occc3[C@H]1CC[C@@]13C[C@@H](CC[C@H]12)[C@@](O)(CO)C3 [Cafestol] | 1003.112 RFU | –
23 | Nc1nc2nc[nH]c2c(=O)[nH]1 [Guanine] | 909.1174 RFU | –
24 | CCCCC[C@H](O)/C=C/[C@H]1C(=O)C[C@H](O)[C@@H]1C/C=C\CCCC(=O)O [Prostaglandin D2] | 071064.5 RFU | –
25 | trans-Zeatin | 1016.786 RFU | –
26 | Nc1ncnc(N[C@@H]2O[C@H](CO)[C@@H](O)[C@H]2O)c1[N+](=O)[O-] [Clitocine] | 1144.133 RFU | –
27 | CC(C)=CCc1c(O)cc2oc3cc(O)c(O)c(CCC(C)(C)O)c3c(=O)c2c1O [Garcinone C] | 921.9256 RFU | –
28 | N[C@@H](CC(=O)O)C(=O)[O-].[Na+] [L-Aspartic aicd (sodium)] | 708.7772 RFU and 1026.622 RFU | –
29 | O=C(O)c1ccc(O)nc1 [6-Hydroxynicotinic acid] | 655.7069 RFU | –
30 | CCCCCCCCC[C@H](O)CC(=O)CCc1ccc(O)c(OC)c1 [Compound 10-Gingerol] | 817.7781 RFU | –
31 | NC(=O)CC[C@@H]1NC(=O)[C@H](Cc2ccccc2)NC(=O)[C@H](Cc2ccc(O)cc2)NC(=O)[C@@H](N)CSSC[C@@H](C(=O)N2CCC[C@H]2C(=O)N[C@@H](CCCN=C(N)N)C(=O)NCC(N)=O)NC(=O)[C@H](CC(N)=O)NC1=O [Vasopressin] | 1150.397 RFU | –
32 | O=C1C[C@@H](c2ccc(O[C@@H]3O[C@H](CO)[C@@H](O)[C@H](O)[C@H]3O)cc2)Oc2cc(O)cc(O)c21 [Choerospondin] | 1121.626 RFU | –
33 | O=S(=O)([O-])c1ccc(N=Nc2c(O)ccc3cc(S(=O)(=O)[O-])ccc23)cc1.[Na+].[Na+] [Sunset Yellow FCF] | 868.5434 RFU | –
34 | CC(C)(O[C@@H]1O[C@H](CO)[C@@H](O)[C@H](O)[C@H]1O)[C@H]1Oc2cc3oc(=O)ccc3cc2[C@H]1O [Smyrindioloside] | 1066.572 RFU | –
35 | OC[C@H]1O[C@@H]2O[C@H]3[C@H](O)[C@@H](O)[C@@H](O[C@H]4[C@H](O)[C@@H](O)[C@@H](O[C@H]5[C@H](O)[C@@H](O)[C@@H](O[C@H]6[C@H](O)[C@@H](O)[C@@H](O[C@H]7[C@H](O)[C@@H](O)[C@@H](O[C@H]8[C@H](O)[C@@H](O)[C@@H](O[C@H]1[C@H](O)[C@H]2O)O[C@@H]8CO)O[C@@H]7CO)O[C@@H]6CO)O[C@@H]5CO)O[C@@H]4CO)O[C@@H]3CO [β-Cyclodextrin] | 886.2621 RFU | –
36 | COc1cc2c(cc1O)CC[C@@H]1[C@@H]2CC[C@]2(C)C(=O)CC[C@@H]12 [Compound 2-Methoxyestrone] | 970.0321 RFU | –
37 | NCCP(=O)(O)O [(2-Aminoethyl)phosphonic acid] | 914.5342 RFU | –
38 | O=c1cc(O)c2ccccc2o1 [Compound 4-Hydroxycoumarin, 4-Hydroxycoumarin] | 929.4704 RFU | –
39 | CCO[C@@H]1O[C@H](C(=O)O)[C@@H](O)[C@H](O)[C@H]1O [Ethyl glucuronide] | 1053.076 RFU | –
40 | CCCCC1OC(=O)c2ccccc21 (centres unmarked) [Butylphthalide] | 989.7778 RFU | –
41 | CCCC=C1OC(=O)c2ccccc21 [3-Butylidenephthalide] | 952.6722 RFU | –
42 | C[C@]12CC[C@H](O)C[C@@H]1CC[C@@H]1[C@@H]2CC[C@]2(C)C(=O)CC[C@@H]12 [Epiandrosterone] | 760.9004 RFU | –

Row | Compound | Lipase (RFU) | Hit in lipase inhibition screen (in words)
43 | c1ccc(CSSCc2ccccc2)cc1 [Dibenzyl disulfide] | 1113.399 RFU | –
44 | COc1cc(/C=C/CO)cc(OC)c1O[C@@H]1O[C@H](CO)[C@@H](O)[C@H](O)[C@H]1O [Syringin] | 935.9617 RFU | –
45 | CC(=O)[C@@]1(O)CC[C@H]2[C@@H]3CCC4=CC(=O)CC[C@]4(C)[C@H]3CC[C@@]21C [17α-Hydroxyprogesterone] | 867.6703 RFU | –
46 | O=C(O)C(O)Cc1ccc(O)cc1 (centres unmarked) [Hydroxyphenyllactic acid] | 914.2115 RFU | –
47 | C[N+](C)(C)[O-] [Trimethylamine N-oxide] | 948.4231 RFU and 1147.152 RFU | –
48 | Cc1cc(O[C@@H]2O[C@H](CO)[C@@H](O)[C@H](O)[C@H]2O)c2c(c1)C(=O)c1cc(O)cc(O)c1C2=O [Emodin-8-glucoside] | 1174.326 RFU | –
49 | O=C(O)/C=C/c1c[nH]cn1 [Urocanic acid] | 1101.226 RFU | –
50 | COc1c2ccoc2c(O)c2oc(=O)ccc12 [Compound 8-Hydroxybergapten] | 800.3718 RFU | –
51 | CCCCCCCCCCCC(=O)O[C@H](CC(=O)[O-])C[N+](C)(C)C [Dodecanoylcarnitine] | 868.7983 RFU | –
52 | O=C(/C=C/c1ccc(O)cc1)CC(=O)/C=C/c1ccc(O)cc1 [Bisdemethoxycucurmin] | 967.3982 RFU | –
53 | O=C(O)[C@H](O)[C@@H](O)[C@H](O)[C@H](O)CO[C@H]1O[C@H](CO)[C@H](O)[C@H](O)[C@H]1O [Melibionic Acid] | 917.5297 RFU | –
54 | OC[C@H]1O[C@H](O[C@H]2O[C@H](CO)[C@@H](O)[C@H](O)[C@H]2O)[C@H](O)[C@@H](O)[C@@H]1O [D-(+)-Trehalose] | 893.2005 RFU and 909.0228 RFU | –
55 | C=C(C[C@@H](O)[C@](C)(O)[C@H]1CC[C@@]2(O)C3=CC(=O)[C@@H]4C[C@@H](O)[C@@H](O)C[C@]4(C)[C@H]3CC[C@]12C)C(C)C [Polyporusterone B] | 1175.382 RFU | –
56 | Chondroitin Sulfate C | 308.9045 RFU | significantly inhibited lipase activity
57 | CCCCCC/C=C\CCCCCCCCCCCC(=O)O [Paullinic acid] | 1192.519 RFU | –
58 | CN(C)CCc1ccc(O)cc1 [Hordenine] | 1057.467 RFU | –
59 | Maltopentaose | 907.876 RFU | –
60 | CC(=O)OC(C)(C)/C=C/C(=O)[C@](C)(O)[C@H]1[C@H](O)C[C@@]2(C)[C@@H]3CC=C4[C@H](C[C@H](O)C(=O)C4(C)C)[C@]3(C)C(=O)C[C@]12C [Cucurbitacin B] | 789.0588 RFU | –
61 | C[C@H](CCC(=O)NCC(=O)O)[C@H]1CC[C@H]2[C@@H]3CC[C@@H]4C[C@H](O)CC[C@]4(C)[C@H]3CC[C@]12C [Glycolithocholic acid] | 1103.978 RFU | –
